Test system: skin of the forearm
Assay: in vivo tanning test: skin colour read with Minolta CR 200 Chromameter after UVA irradiation
Design: species or system volunteers
Conditions: for Percentage increase WHITE (-L*) / Percentage increase RED (a*) / Percentage increase YELLOW (B*): 15 volunteers, forearm skin, UVA 10 minutes every 24 hours, irradiated untreated skin = 100%
Protocol: In order to evaluate the effectiveness of the group of components in question in extending the formation of a tan, an in vivo test with a cream containing tyrosine conjugated with 0.750 oleic acid was carried out in vivo on 15 volunteers over a period of 14 days. Three adjacent zones on the skin of the forearm of each volunteer were identified. The first irradiated zone was treated with an emulsion containing only a sun filter (placebo), the second with an emulsion containing both the filter and the lipophilic tyrosine, the third was not treated with any emulsion (control) . The three zones of the skin were irradiated simultaneously with UVA light for 10 minutes every 24 hours (1 hour after application of the creams) for two weeks. The skin colour was read instrumentally using the Minolta® CR 200 Chromameter instrument, a device for measuring the colour of surfaces which is capable of analysing the strength of the colouration using a Xenon lamp, subdividing it into three different parameters (corresponding to the white component (-L*), the red component (a*) and the yellow component (B*)). Each reading was made 24 hours after each exposure to UVA light, in order to minimise instantaneous pigmentation phenomena. The average percentage increase in the colour of the skin treated with lipophilic tyrosine in comparison with the portion of the skin treated with placebo was calculated, assigning a value of 100% to the strength of the colour of the irradiated skin in the absence of emulsion.
Values of the average percentage increase in the white, red and yellow parameters found are shown in the following table: Percentage increase in the 3 parameters

Substance: tyrosine conjugated with oleic acid
- Percentage increase WHITE (-L*) (1st day, emulsion with filter and lipophilic tyrosine vs placebo (filter only), reading 24 hours after exposure): -70.20%
- Percentage increase RED (a*) (1st day, vs placebo): 66.60%
- Percentage increase RED (a*) (6th day, vs placebo): 73.16%
- Percentage increase WHITE (-L*) (6th day, vs placebo): -79.00%
- Percentage increase YELLOW (B*) (6th day, vs placebo): 62.26%
- Percentage increase RED (a*) (Mean after 14 days, vs placebo): 73.50%
- Percentage increase WHITE (-L*) (Mean after 14 days, vs placebo): -69.00%
- Percentage increase YELLOW (B*) (Mean after 14 days, vs placebo): 65.00%
- decrease in white with simultaneous increase in the red and yellow components over time (treated skin in comparison with skin treated with placebo): significantly greater

— patent EP1624852B1, “SUN TANNING PRODUCTS AND PRODUCTS FOR TREATMENT OF THE SKIN BEFORE AND AFTER EXPOSURE TO THE SUN” (Gecomwert Anstalt, priority 2003, dated 2004)
